# Results reported in ChEMBL document CHEMBL1671678, “Probing the antimalarial mechanism of artemisinin and OZ277 (arterolane) with nonperoxidic isosteres and nitroxyl radicals” (Antimicrob Agents Chemother, 2010).
# Legend:
# Plasmodium falciparum [1] = assay: Antimalarial activity against Plasmodium falciparum K1 by [3H]hypoxanthine incorporation assay; format: functional, organism-based
# Plasmodium falciparum [2] = assay: Antimalarial activity against Plasmodium falciparum NF54 by [3H]hypoxanthine incorporation assay in presence of 1:3 ratio of compound to 4-oxo-2,2,6,6,-tetramethyl-1-piperidinyloxy; format: functional
# Plasmodium falciparum [3] = assay: Antimalarial activity against Plasmodium falciparum NF54 by [3H]hypoxanthine incorporation assay in presence of deoxyartemisinin; format: functional
# Plasmodium falciparum [4] = assay: Antimalarial activity against Plasmodium falciparum NF54 by [3H]hypoxanthine incorporation assay in presence 3:1 ratio of compound to deoxyartemisinin; format: functional
# Plasmodium falciparum [5] = assay: Antimalarial activity against Plasmodium falciparum NF54 by [3H]hypoxanthine incorporation assay in presence of 1:1 ratio of compound to 4-hydroxy-2,2,6,6,-tetramethyl-1-piperidinyloxy; format: functional
# Plasmodium falciparum [6] = assay: Antimalarial activity against Plasmodium falciparum NF54 by [3H]hypoxanthine incorporation assay in presence of 4-oxo-2,2,6,6,-tetramethyl-1-piperidinyloxy; format: functional
# Plasmodium falciparum [7] = assay: Antimalarial activity against Plasmodium falciparum NF54 by [3H]hypoxanthine incorporation assay in presence of 3:1 ratio of compound to 4-hydroxy-2,2,6,6,-tetramethyl-1-piperidinyloxy; format: functional
# Plasmodium falciparum [8] = assay: Antimalarial activity against Plasmodium falciparum NF54 by [3H]hypoxanthine incorporation assay in presence of carbaOZ277; format: functional
# Plasmodium falciparum [9] = assay: Antimalarial activity against Plasmodium falciparum NF54 by [3H]hypoxanthine incorporation assay in presence of 4-hydroxy-2,2,6,6,-tetramethyl-1-piperidinyloxy; format: functional
# Plasmodium falciparum [10] = assay: Antimalarial activity against Plasmodium falciparum NF54 by [3H]hypoxanthine incorporation assay in presence of 1:1 ratio of compound to 4-amino-2,2,6,6,-tetramethyl-1-piperidinyloxy; format: functional
# Plasmodium falciparum [11] = assay: Antimalarial activity against Plasmodium falciparum NF54 by [3H]hypoxanthine incorporation assay in presence of 1:3 ratio of compound to 4-amino-2,2,6,6,-tetramethyl-1-piperidinyloxy; format: functional
# Plasmodium falciparum [12] = assay: Antimalarial activity against Plasmodium falciparum NF54 by [3H]hypoxanthine incorporation assay in presence of 1:1 ratio of compound to 4-carboxy-2,2,6,6,-tetramethyl-1-piperidinyloxy; format: functional
# Plasmodium falciparum [13] = assay: Antimalarial activity against Plasmodium falciparum NF54 by [3H]hypoxanthine incorporation assay in presence of 4-carboxy-2,2,6,6,-tetramethyl-1-piperidinyloxy; format: functional
# Plasmodium falciparum [14] = assay: Antimalarial activity against Plasmodium falciparum NF54 by [3H]hypoxanthine incorporation assay in presence 1:3 ratio of compound to deoxyartemisinin; format: functional
# Plasmodium falciparum [15] = assay: Antimalarial activity against Plasmodium falciparum NF54 by [3H]hypoxanthine incorporation assay in presence 1:1 ratio of compound to deoxyartemisinin; format: functional
# Plasmodium falciparum [16] = assay: Antimalarial activity against Plasmodium falciparum NF54 by [3H]hypoxanthine incorporation assay in presence 1:3 ratio of compound to carbaOZ277; format: functional
# Plasmodium falciparum [17] = assay: Antimalarial activity against Plasmodium falciparum NF54 by [3H]hypoxanthine incorporation assay in presence of 2,2,6,6,-tetramethyl-1-piperidinyloxy; format: functional
# Plasmodium falciparum [18] = assay: Antimalarial activity against Plasmodium falciparum NF54 by [3H]hypoxanthine incorporation assay in presence 3:1 ratio of compound to carbaOZ277; format: functional
# Plasmodium falciparum [19] = assay: Antimalarial activity against Plasmodium falciparum NF54 by [3H]hypoxanthine incorporation assay in presence of 3:1 ratio of compound to 2,2,6,6,-tetramethyl-1-piperidinyloxy; format: functional
# Plasmodium falciparum [20] = assay: Antimalarial activity against Plasmodium falciparum NF54 by [3H]hypoxanthine incorporation assay in presence 1:1 ratio of compound to carbaOZ277; format: functional
# Plasmodium falciparum [21] = assay: Antimalarial activity against Plasmodium falciparum NF54 by [3H]hypoxanthine incorporation assay in presence of 3:1 ratio of compound to 4-oxo-2,2,6,6,-tetramethyl-1-piperidinyloxy; format: functional
# Plasmodium falciparum [22] = assay: Antimalarial activity against Plasmodium falciparum NF54 by [3H]hypoxanthine incorporation assay in presence of 1:3 ratio of compound to 4-carboxy-2,2,6,6,-tetramethyl-1-piperidinyloxy; format: functional
# Plasmodium falciparum [23] = assay: Antimalarial activity against Plasmodium falciparum NF54 by [3H]hypoxanthine incorporation assay in presence of 3:1 ratio of compound to 4-carboxy-2,2,6,6,-tetramethyl-1-piperidinyloxy; format: functional
# Plasmodium falciparum [24] = assay: Antimalarial activity against Plasmodium falciparum NF54 by [3H]hypoxanthine incorporation assay in presence of 1:3 ratio of compound to 2,2,6,6,-tetramethyl-1-piperidinyloxy; format: functional
# Plasmodium falciparum [25] = assay: Antimalarial activity against Plasmodium falciparum NF54 by [3H]hypoxanthine incorporation assay in presence of 3:1 ratio of compound to 4-amino-2,2,6,6,-tetramethyl-1-piperidinyloxy; format: functional
# Plasmodium falciparum [26] = assay: Antimalarial activity against Plasmodium falciparum NF54 by [3H]hypoxanthine incorporation assay in presence of 1:3 ratio of compound to 4-hydroxy-2,2,6,6,-tetramethyl-1-piperidinyloxy; format: functional
# Plasmodium falciparum [27] = assay: Antimalarial activity against Plasmodium falciparum NF54 by [3H]hypoxanthine incorporation assay in presence of 1:1 ratio of compound to 2,2,6,6,-tetramethyl-1-piperidinyloxy; format: functional
# Plasmodium falciparum [28] = assay: Antimalarial activity against Plasmodium falciparum NF54 by [3H]hypoxanthine incorporation assay in presence of 4-amino-2,2,6,6,-tetramethyl-1-piperidinyloxy; format: functional
# Plasmodium falciparum [29] = assay: Antimalarial activity against Plasmodium falciparum NF54 by [3H]hypoxanthine incorporation assay in presence of 1:1 ratio of compound to 4-oxo-2,2,6,6,-tetramethyl-1-piperidinyloxy; format: functional
# Plasmodium falciparum [30] = assay: Antimalarial activity against Plasmodium falciparum NF54 by [3H]hypoxanthine incorporation assay; format: functional, organism-based
# [31] = Plasmodium falciparum, K1, read-out: IC50
structure (smiles),measurement,setting,value
CC(C)(N)CNC(=O)CC1CC[C@]2(CC1)OC[C@]1(O2)C2CC3CC(C2)CC1C3 (stereo partly drawn),IC50,Plasmodium falciparum [1]; [31],12 µg/mL
CC1(C)CC(N)CC(C)(C)N1[O] [TEMPAMINE],IC50,Plasmodium falciparum [1]; [31],16 µg/mL
CC1(C)CC(O)CC(C)(C)N1[O] [TEMPOL],IC50,Plasmodium falciparum [1]; [31],19 µg/mL
C[C@@H]1CC[C@H]2[C@@H](C)C(=O)O[C@@H]3O[C@@]4(C)CC[C@@H]1[C@]32O4 [DEOXYARTEMISININ],IC50,Plasmodium falciparum [1]; [31],34 µg/mL
CC1(C)CC(=O)CC(C)(C)N1[O],IC50,Plasmodium falciparum [1]; [31],2.2 µg/mL
CC(C)(N)CNC(=O)C[C@H]1CC[C@]2(CC1)OO[C@]1(O2)C2CC3CC(C2)CC1C3 [OZ277],FIC50,Plasmodium falciparum [2],1.4
same,FIC50,Plasmodium falciparum [3],1.2
same,FIC50,Plasmodium falciparum [4],1.2
same,FIC50,Plasmodium falciparum [5],1.3
same,FIC50,Plasmodium falciparum [6],1.3
same,FIC50,Plasmodium falciparum [7],1.2
same,FIC50,Plasmodium falciparum [8],1.3
same,FIC50,Plasmodium falciparum [9],1.3
same,FIC50,Plasmodium falciparum [10],2.4
same,FIC50,Plasmodium falciparum [11],2.3
same,FIC50,Plasmodium falciparum [12],1.3
same,FIC50,Plasmodium falciparum [13],1.3
same,FIC50,Plasmodium falciparum [14],1.4
same,FIC50,Plasmodium falciparum [15],1.3
same,FIC50,Plasmodium falciparum [16],1.2
same,FIC50,Plasmodium falciparum [17],1.5
same,FIC50,Plasmodium falciparum [18],1.1
same,FIC50,Plasmodium falciparum [19],1.2
same,FIC50,Plasmodium falciparum [20],1.2
same,FIC50,Plasmodium falciparum [21],1.1
same,FIC50,Plasmodium falciparum [22],1.3
same,FIC50,Plasmodium falciparum [23],1.2
same,FIC50,Plasmodium falciparum [24],1.8
same,FIC50,Plasmodium falciparum [25],1.7
same,FIC50,Plasmodium falciparum [26],1.5
same,FIC50,Plasmodium falciparum [27],1.5
same,FIC50,Plasmodium falciparum [28],2.1
same,FIC50,Plasmodium falciparum [29],1.3
C[C@@H]1CC[C@H]2[C@@H](C)C(=O)O[C@@H]3O[C@@]4(C)CC[C@@H]1[C@]32OO4 [ARTEMISININ],FIC50,Plasmodium falciparum [2],2.3
same,FIC50,Plasmodium falciparum [3],1.1
same,FIC50,Plasmodium falciparum [4],1
same,FIC50,Plasmodium falciparum [5],4
same,FIC50,Plasmodium falciparum [6],2.3
same,FIC50,Plasmodium falciparum [7],2.5
same,FIC50,Plasmodium falciparum [8],1.1
same,FIC50,Plasmodium falciparum [9],2.8
same,FIC50,Plasmodium falciparum [10],1.9
same,FIC50,Plasmodium falciparum [11],1.3
same,FIC50,Plasmodium falciparum [12],1.4
same,FIC50,Plasmodium falciparum [13],1.3
same,FIC50,Plasmodium falciparum [14],1.2
same,FIC50,Plasmodium falciparum [15],1.1
same,FIC50,Plasmodium falciparum [16],1.1
same,FIC50,Plasmodium falciparum [17],1.9
same,FIC50,Plasmodium falciparum [18],1.1
same,FIC50,Plasmodium falciparum [19],2.2
same,FIC50,Plasmodium falciparum [20],1.1
same,FIC50,Plasmodium falciparum [21],2
same,FIC50,Plasmodium falciparum [22],1.4
same,FIC50,Plasmodium falciparum [23],1.2
same,FIC50,Plasmodium falciparum [24],1.3
same,FIC50,Plasmodium falciparum [25],2.8
same,FIC50,Plasmodium falciparum [26],1.8
same,FIC50,Plasmodium falciparum [27],2.1
same,FIC50,Plasmodium falciparum [28],2
same,FIC50,Plasmodium falciparum [29],2.6
CC1(C)CC(C(=O)O)CC(C)(C)N1[O],IC50,Plasmodium falciparum [30],0.00054 µg/mL
same,IC50,Plasmodium falciparum [1],0.00057 µg/mL
